# Test system: human fecal bacteria
# Experiment: Measure of prebiotic effect (MPE), stirred pH-controlled batch culture fermentations
# Type: cell-based
# Procedure: Quantitative in vitro methods are known for measuring the prebiotic effect of a fiber. The measurable effect a fiber has on the growth of major bacterial species in the human gut, bifidobacteria and lactobacilli in particular, is the measure of the prebiotic effect (MPE). MPE has three components:
# 1. the rate fiber is fermented;
# 2. the changes in bacterial populations; and
# 3. the production of SCFA.
# The rate of fiber fermentation is determined by the change in the concentration of fiber over time. Thus, the quicker the fiber concentration decreases, the faster the rate of fermentation by bacteria. Changes in bacterial populations are measured by the “prebiotic index,” which considers increases in the growth rate of bifidobacteria, lactobacilli, and eubacteria as positive effects and increases in bacteriodes, clostridia, Escherichia coli, and sulphate-reducing bacteria as negative effects. Different fibers support the growth of distinct bacteria and therefore yield varying patterns and/or amounts of SCFA. However, the prebiotic effect is usually associated with lactic acid-producing bacteria, bifidobacteria and lactobacilli being principle lactic acid producers. Therefore, the ratio of lactic acid production relative to the total SCFA production provides a qualitative as well as quantitative assessment of the fibers being examined. The MPE provides a quantitative analysis of the prebiotic potential of a fiber and provides further support for the benefits of specific fibers. Therefore, the MPE is a useful tool in identifying the types and specific amounts of fiber that promote optimal digestive health and prevent or treat intestinal diseases.
# Each value is based on stirred, pH-controlled batch culture fermentations using 0.25%, 0.5%, and 1.0% (w/v) substrates in the presence of human fecal bacteria.
smiles,measurement,setting,value
OC[C@H]1O[C@@](CO)(O[C@H]2O[C@H](CO)[C@@H](O)[C@H](O)[C@H]2O)[C@@H](O)[C@@H]1O [Sucrose],MPE,0.25% (w/v) substrate,−0.3
same,MPE,0.5% (w/v) substrate,−0.3
same,MPE,1% (w/v) substrate,−0.6

# — patent publication US8530447B2, “Dietary fiber formulation and method of administration” (Nestec S.A., priority 2005, dated 2013)
